Like-named read-outs stand apart in the source and are kept apart here. Numbered stars: 1 amine (or outer) side, 2 acyl side, 3 side chain; on linkers, the order of the positions; unused ones are H or OH. Bridge positions count the residues as written; N and C are the ends. Square brackets hold non-standard residues; d marks the D form. Side chains are listed from the residue outwards. Peptide text beside a SMILES is read from it. * marks the point of attachment. C20 diacid = O=C(O)CCCCCCCCCCCCCCCCCCC(=O)*; C18 diacid = O=C(O)CCCCCCCCCCCCCCCCC(=O)*; γGlu = O=C(O)[C@H](CCC(=O)[*:2])N[*:1]; Hyp = O=C(O)[C@@H]1C[C@@H](O)CN1; AEEA = NCCOCCOCC(=O)O
Target: T1, human amylin receptor (Homo sapiens, UniProt O60896+P30988)
T1 construct: host or cells: CHO-K1/Ga15/AMY3 cells, further stably transfected with a CRE-luciferase plasmid
T1 sequence (P30988 25-474): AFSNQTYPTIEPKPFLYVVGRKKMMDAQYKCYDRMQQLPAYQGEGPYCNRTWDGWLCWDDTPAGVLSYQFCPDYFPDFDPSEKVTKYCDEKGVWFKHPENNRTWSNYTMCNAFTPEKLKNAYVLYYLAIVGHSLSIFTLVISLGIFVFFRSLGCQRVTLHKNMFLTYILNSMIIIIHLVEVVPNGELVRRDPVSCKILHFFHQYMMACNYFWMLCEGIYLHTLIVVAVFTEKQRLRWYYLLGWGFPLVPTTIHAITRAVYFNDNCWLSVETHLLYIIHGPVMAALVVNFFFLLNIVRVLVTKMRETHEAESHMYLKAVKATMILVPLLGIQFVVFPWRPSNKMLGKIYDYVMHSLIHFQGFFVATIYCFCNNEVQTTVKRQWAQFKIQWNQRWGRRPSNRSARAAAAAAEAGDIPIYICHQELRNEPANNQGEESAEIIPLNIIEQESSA
T1 sequence (O60896 24-148 partner): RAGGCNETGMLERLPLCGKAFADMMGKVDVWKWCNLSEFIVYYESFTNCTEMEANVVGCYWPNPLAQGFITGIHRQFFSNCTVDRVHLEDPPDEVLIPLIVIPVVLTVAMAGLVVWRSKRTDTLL
Experiment: Luciferase assay of amylin derivatives in amylin receptor/CRE-luc CHO cell line
Assay type: cell-based
Settings: 24 hours incubation, F12 medium containing 10% FBS

[1] = CHO-K1/Ga15/AMY3 CRE-luc cells, read-out: EC50

Description: The experiment was intended to detect the activity or efficacy of the amylin derivatives on a human amylin receptor in vitro by luciferase assay.
50 μL of growth medium (F12 medium containing 10% FBS) was added into each well of a white 96-well plate, and the stably transfected amylin/CRE-lue CHO cells were inoculated into the white 96-well plate at a density of about 20,000 cells/well for activity determination.

EC50 [1] | SMILES | EC50 (EC50, CHO-K1/Ga15/AMY3 CRE-luc cells)
0.06 nM | CC[C@H](C)[C@H](NC(=O)[C@@H]1CCCN1C(=O)CNC(=O)[C@H](CC(C)C)NC(=O)[C@H](CC(N)=O)NC(=O)[C@H](CC(N)=O)NC(=O)[C@H](CO)NC(=O)[C@H](CCCCNC(=O)CC[C@H](NC(=O)CCCCCCCCCCCCCCCCC(=O)O)C(=O)O)NC(=O)[C@H](Cc1c[nH]cn1)NC(=O)[C@H](CCCNC(=N)N)NC(=O)[C@H](CC(C)C)NC(=O)[C@H](Cc1ccccc1)NC(=O)[C@H](CC(=O)O)NC(=O)[C@H](C)NC(=O)[C@H](CC(C)C)NC(=O)[C@H](CCCNC(=N)N)NC(=O)[C@H](CCC(N)=O)NC(=O)[C@@H](NC(=O)[C@H](C)NC(=O)[C@@H]1CSSC[C@H](NC(=O)[C@@H](N)CCCNC(=N)N)C(=O)N[C@@H](CC(N)=O)C(=O)N[C@@H]([C@@H](C)O)C(=O)N[C@@H](C)C(=O)N[C@@H]([C@@H](C)O)C(=O)N1)[C@@H](C)O)C(=O)N[C@@H](CC(C)C)C(=O)N1CCC[C@H]1C(=O)N1CCC[C@H]1C(=O)N[C@H](C(=O)N[C@@H](CC(N)=O)C(=O)N[C@H](C(=O)NCC(=O)N[C@@H](CO)C(=O)N[C@@H](CC(N)=O)C(=O)N[C@H](C(=O)N1C[C@H](O)C[C@H]1C(N)=O)[C@@H](C)O)C(C)C)[C@@H](C)O [PD100] (H-RCNTATCATQRLADFLRHK([γGlu-C18 diacid])SNNLGPILPPTNVGSNT[Hyp]-NH2; disulfide 2-7) | –
– | CC[C@H](C)[C@H](NC(=O)[C@@H]1CCCN1C(=O)CNC(=O)[C@H](CC(C)C)NC(=O)[C@H](CC(N)=O)NC(=O)[C@H](CC(N)=O)NC(=O)[C@H](CO)NC(=O)[C@H](CCCCNC(=O)COCCOCCNC(=O)COCCOCCNC(=O)CC[C@H](NC(=O)CCCCCCCCCCCCCCCCC(=O)O)C(=O)O)NC(=O)[C@H](Cc1c[nH]cn1)NC(=O)[C@H](CCCNC(=N)N)NC(=O)[C@H](CC(C)C)NC(=O)[C@H](Cc1ccccc1)NC(=O)[C@H](CC(=O)O)NC(=O)[C@H](C)NC(=O)[C@H](CC(C)C)NC(=O)[C@H](CCCNC(=N)N)NC(=O)[C@H](CCC(N)=O)NC(=O)[C@@H](NC(=O)[C@H](C)NC(=O)[C@@H]1CSSC[C@H](NC(=O)[C@@H](N)CCCNC(=N)N)C(=O)N[C@@H](CC(N)=O)C(=O)N[C@@H]([C@@H](C)O)C(=O)N[C@@H](C)C(=O)N[C@@H]([C@@H](C)O)C(=O)N1)[C@@H](C)O)C(=O)N[C@@H](CC(C)C)C(=O)N1CCC[C@H]1C(=O)N1CCC[C@H]1C(=O)N[C@H](C(=O)N[C@@H](CC(N)=O)C(=O)N[C@H](C(=O)NCC(=O)N[C@@H](CO)C(=O)N[C@@H](CC(N)=O)C(=O)N[C@H](C(=O)N1C[C@H](O)C[C@H]1C(N)=O)[C@@H](C)O)C(C)C)[C@@H](C)O [PD101] (H-RCNTATCATQRLADFLRHK([AEEA-AEEA-γGlu-C18 diacid])SNNLGPILPPTNVGSNT[Hyp]-NH2; disulfide 2-7) | 0.012 nM
0.033 nM | CC[C@H](C)[C@H](NC(=O)[C@H](CCCCNC(=O)CC[C@H](NC(=O)CCCCCCCCCCCCCCCCCCC(=O)O)C(=O)O)NC(=O)CNC(=O)[C@H](CC(C)C)NC(=O)[C@H](CC(N)=O)NC(=O)[C@H](CC(N)=O)NC(=O)[C@H](CO)NC(=O)[C@H](CO)NC(=O)[C@H](Cc1c[nH]cn1)NC(=O)[C@H](CCCNC(=N)N)NC(=O)[C@H](CC(C)C)NC(=O)[C@H](Cc1ccccc1)NC(=O)[C@H](CC(=O)O)NC(=O)[C@H](C)NC(=O)[C@H](CC(C)C)NC(=O)[C@H](CCCNC(=N)N)NC(=O)[C@H](CCC(N)=O)NC(=O)[C@@H](NC(=O)[C@H](C)NC(=O)[C@@H]1CSSC[C@H](NC(=O)[C@@H](N)CCCNC(=N)N)C(=O)N[C@@H](CC(N)=O)C(=O)N[C@@H]([C@@H](C)O)C(=O)N[C@@H](C)C(=O)N[C@@H]([C@@H](C)O)C(=O)N1)[C@@H](C)O)C(=O)N[C@@H](CC(C)C)C(=O)N1CCC[C@H]1C(=O)N1CCC[C@H]1C(=O)N[C@H](C(=O)N[C@@H](CC(N)=O)C(=O)N[C@H](C(=O)NCC(=O)N[C@@H](CO)C(=O)N[C@@H](CC(N)=O)C(=O)N[C@H](C(=O)N1C[C@H](O)C[C@H]1C(N)=O)[C@@H](C)O)C(C)C)[C@@H](C)O [PD102] (H-RCNTATCATQRLADFLRHSSNNLGK([γGlu-C20 diacid])ILPPTNVGSNT[Hyp]-NH2; disulfide 2-7) | –
0.011 nM | CC[C@H](C)[C@H](NC(=O)[C@H](CCCCNC(=O)CC[C@H](NC(=O)CCCCCCCCCCCCCCCCC(=O)O)C(=O)O)NC(=O)CNC(=O)[C@H](CC(C)C)NC(=O)[C@H](CC(N)=O)NC(=O)[C@H](CC(N)=O)NC(=O)[C@H](CO)NC(=O)[C@H](CO)NC(=O)[C@H](Cc1c[nH]cn1)NC(=O)[C@H](CCCNC(=N)N)NC(=O)[C@H](CC(C)C)NC(=O)[C@H](Cc1ccccc1)NC(=O)[C@H](CC(=O)O)NC(=O)[C@H](C)NC(=O)[C@H](CC(C)C)NC(=O)[C@H](CCCNC(=N)N)NC(=O)[C@H](CCC(N)=O)NC(=O)[C@@H](NC(=O)[C@H](C)NC(=O)[C@@H]1CSSC[C@H](NC(=O)[C@@H](N)CCCNC(=N)N)C(=O)N[C@@H](CC(N)=O)C(=O)N[C@@H]([C@@H](C)O)C(=O)N[C@@H](C)C(=O)N[C@@H]([C@@H](C)O)C(=O)N1)[C@@H](C)O)C(=O)N[C@@H](CC(C)C)C(=O)N1CCC[C@H]1C(=O)N1CCC[C@H]1C(=O)N[C@H](C(=O)N[C@@H](CC(N)=O)C(=O)N[C@H](C(=O)NCC(=O)N[C@@H](CO)C(=O)N[C@@H](CC(N)=O)C(=O)N[C@H](C(=O)N1C[C@H](O)C[C@H]1C(N)=O)[C@@H](C)O)C(C)C)[C@@H](C)O [PD104] (H-RCNTATCATQRLADFLRHSSNNLGK([γGlu-C18 diacid])ILPPTNVGSNT[Hyp]-NH2; disulfide 2-7) | –
0.033 nM | CC[C@H](C)[C@H](NC(=O)[C@H](CCCCNC(=O)COCCOCCNC(=O)COCCOCCNC(=O)CC[C@H](NC(=O)CCCCCCCCCCCCCCCCC(=O)O)C(=O)O)NC(=O)CNC(=O)[C@H](CC(C)C)NC(=O)[C@H](CC(N)=O)NC(=O)[C@H](CC(N)=O)NC(=O)[C@H](CO)NC(=O)[C@H](CO)NC(=O)[C@H](Cc1c[nH]cn1)NC(=O)[C@H](CCCNC(=N)N)NC(=O)[C@H](CC(C)C)NC(=O)[C@H](Cc1ccccc1)NC(=O)[C@H](CC(=O)O)NC(=O)[C@H](C)NC(=O)[C@H](CC(C)C)NC(=O)[C@H](CCCNC(=N)N)NC(=O)[C@H](CCC(N)=O)NC(=O)[C@@H](NC(=O)[C@H](C)NC(=O)[C@@H]1CSSC[C@H](NC(=O)[C@@H](N)CCCNC(=N)N)C(=O)N[C@@H](CC(N)=O)C(=O)N[C@@H]([C@@H](C)O)C(=O)N[C@@H](C)C(=O)N[C@@H]([C@@H](C)O)C(=O)N1)[C@@H](C)O)C(=O)N[C@@H](CC(C)C)C(=O)N1CCC[C@H]1C(=O)N1CCC[C@H]1C(=O)N[C@H](C(=O)N[C@@H](CC(N)=O)C(=O)N[C@H](C(=O)NCC(=O)N[C@@H](CO)C(=O)N[C@@H](CC(N)=O)C(=O)N[C@H](C(=O)N1C[C@H](O)C[C@H]1C(N)=O)[C@@H](C)O)C(C)C)[C@@H](C)O [PD105] (H-RCNTATCATQRLADFLRHSSNNLGK([AEEA-AEEA-γGlu-C18 diacid])ILPPTNVGSNT[Hyp]-NH2; disulfide 2-7) | –
0.026 nM | CC[C@H](C)[C@H](NC(=O)[C@@H]1CCCN1C(=O)[C@H](CCCCNC(=O)COCCOCCNC(=O)CC[C@H](NC(=O)CCCCCCCCCCCCCCCCCCC(=O)O)C(=O)O)NC(=O)[C@H](CC(C)C)NC(=O)[C@H](CC(N)=O)NC(=O)[C@H](CC(N)=O)NC(=O)[C@H](CO)NC(=O)[C@H](CO)NC(=O)[C@H](Cc1c[nH]cn1)NC(=O)[C@H](CCCNC(=N)N)NC(=O)[C@H](CC(C)C)NC(=O)[C@H](Cc1ccccc1)NC(=O)[C@H](CC(=O)O)NC(=O)[C@H](C)NC(=O)[C@H](CC(C)C)NC(=O)[C@H](CCCNC(=N)N)NC(=O)[C@H](CCC(N)=O)NC(=O)[C@@H](NC(=O)[C@H](C)NC(=O)[C@@H]1CSSC[C@H](NC(=O)[C@@H](N)CCCNC(=N)N)C(=O)N[C@@H](CC(N)=O)C(=O)N[C@@H]([C@@H](C)O)C(=O)N[C@@H](C)C(=O)N[C@@H]([C@@H](C)O)C(=O)N1)[C@@H](C)O)C(=O)N[C@@H](CC(C)C)C(=O)N1CCC[C@H]1C(=O)N1CCC[C@H]1C(=O)N[C@H](C(=O)N[C@@H](CC(N)=O)C(=O)N[C@H](C(=O)NCC(=O)N[C@@H](CO)C(=O)N[C@@H](CC(N)=O)C(=O)N[C@H](C(=O)N1C[C@H](O)C[C@H]1C(N)=O)[C@@H](C)O)C(C)C)[C@@H](C)O [PD106] (H-RCNTATCATQRLADFLRHSSNNLK([AEEA-γGlu-C20 diacid])PILPPTNVGSNT[Hyp]-NH2; disulfide 2-7) | –
